Results reported in PubChem BioAssay AID248 (DTP/NCI, 2004).
Values joined by “and” are separate entries in the source; they are usually repeats but may differ in a detail not shown here. Identical values can stand only once. Inconclusive results and toxic doses are left out.

System: L1210 leukemia ip in BDF1 mice, survival T/C
Assay: NCI In Vivo Anticancer Drug Screen. Data for tumor model L1210 Leukemia (intraperitoneal) in B6D2F1 (BDF1) mice
Conditions: endpoint: mean survival time, higher = longer survival
Outline: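 Ratio derived from survival: compound-dosed mice over vehicle-dosed mice, all bearing a transplantable tumor.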

[1] = dose: 25.0 mg/kg/injection, schedule: Q01DX009 (ip), vehicle: saline with Tween-80
[2] = dose: 50.0 mg/kg/injection, schedule: Q01DX009 (ip), vehicle: saline with Tween-80
[3] = dose: 100.0 mg/kg/injection, schedule: Q01DX009 (ip), vehicle: saline with Tween-80
[4] = dose: 100.0 mg/kg/injection, schedule: Q04DX003 (ip), vehicle: Klucel (hydroxypropylcellulose) (HPC)
[5] = dose: 100.0 mg/kg/injection, schedule: Q01DX009 (ip), vehicle: saline
[6] = dose: 100.0 mg/kg/injection, schedule: Q04DX003 (ip), vehicle: saline
[7] = dose: 200.0 mg/kg/injection, schedule: Q01DX009 (ip), vehicle: saline
[8] = dose: 200.0 mg/kg/injection, schedule: Q04DX003 (ip), vehicle: saline
[9] = dose: 400.0 mg/kg/injection, schedule: Q01DX009 (ip), vehicle: saline
[10] = dose: 400.0 mg/kg/injection, schedule: Q04DX003 (ip), vehicle: saline
[11] = dose: 100.0 mg/kg/injection, schedule: Q01DX009 (ip), vehicle: Klucel (hydroxypropylcellulose) (HPC)
[12] = dose: 200.0 mg/kg/injection, schedule: Q01DX009 (ip), vehicle: Klucel (hydroxypropylcellulose) (HPC)
[13] = dose: 400.0 mg/kg/injection, schedule: Q01DX009 (ip), vehicle: Klucel (hydroxypropylcellulose) (HPC)
[14] = dose: 100.0 mg/kg/injection, schedule: Q01DX001 (ip), vehicle: carboxymethylcellulose (CMC)
[15] = dose: 200.0 mg/kg/injection, schedule: Q01DX001 (ip), vehicle: carboxymethylcellulose (CMC)
[16] = dose: 400.0 mg/kg/injection, schedule: Q01DX001 (ip), vehicle: carboxymethylcellulose (CMC)
[17] = dose: 50.0 mg/kg/injection, schedule: Q01DX001 (ip), vehicle: carboxymethylcellulose (CMC)
[18] = dose: 100.0 mg/kg/injection, schedule: Q04DX003 (ip), vehicle: saline with Tween-80
[19] = dose: 200.0 mg/kg/injection, schedule: Q04DX003 (ip), vehicle: saline with Tween-80
[20] = dose: 200.0 mg/kg/injection, schedule: Q04DX003 (ip), vehicle: Klucel (hydroxypropylcellulose) (HPC)
[21] = dose: 400.0 mg/kg/injection, schedule: Q04DX003 (ip), vehicle: Klucel (hydroxypropylcellulose) (HPC)

CS(=O)(=O)c1nc2ccccc2s1
T/C [1]: 97 % of control
T/C (dose: 25.0 mg/kg/injection, schedule: Q04DX003 (ip), vehicle: Klucel (hydroxypropylcellulose) (HPC)): 101 % of control
T/C [2]: 92 % of control
T/C (dose: 50.0 mg/kg/injection, schedule: Q04DX003 (ip), vehicle: Klucel (hydroxypropylcellulose) (HPC)): 106 % of control
T/C [3]: 107 % of control
T/C [4]: 106 % of control

COc1ccc(C(=O)c2ccccc2C)cc1OC
T/C (dose: 100.0 mg/kg/injection, schedule: Q01DX001 (ip), vehicle: saline): 95 % of control
T/C (dose: 200.0 mg/kg/injection, schedule: Q01DX001 (ip), vehicle: saline): 97 % of control
T/C (dose: 400.0 mg/kg/injection, schedule: Q01DX001 (ip), vehicle: saline): 91 % of control

Cc1cc(C)c(NS(=O)(=O)c2ccccc2)c(C)c1Br
T/C (dose: 75.0 mg/kg/injection, schedule: Q04DX003 (ip), vehicle: Klucel (hydroxypropylcellulose) (HPC)): 95 % of control
T/C (dose: 150.0 mg/kg/injection, schedule: Q04DX003 (ip), vehicle: Klucel (hydroxypropylcellulose) (HPC)): 94 % of control
T/C (dose: 300.0 mg/kg/injection, schedule: Q04DX003 (ip), vehicle: Klucel (hydroxypropylcellulose) (HPC)): 94 % of control

CC(C)(CCC(C)(C)NCCC#N)NCCC#N
T/C (dose: 50.0 mg/kg/injection, schedule: Q01DX009 (ip), vehicle: saline): 104 % of control
T/C [5]: 104 % of control
T/C [6]: 105 % of control
T/C [7]: 105 % of control
T/C [8]: 103 % of control
T/C [9]: 101 % of control
T/C [10]: 95 % of control

O=C1CC(N2CCCCC2)C(=O)N1c1ccccc1 (stereo not given)
T/C (dose: 100.0 mg/kg/injection, schedule: Q04DX002 (ip), vehicle: saline with Tween-80): 92 % of control
T/C (dose: 200.0 mg/kg/injection, schedule: Q04DX002 (ip), vehicle: saline with Tween-80): 95 % of control

CCC(C)NC(=O)Nc1ccccc1Cl (stereo not given)
T/C [11]: 101 % of control
T/C [12]: 95 % of control
T/C [13]: 100 % of control

O=C(CCCCCCCCC(=O)NCCBr)NCCBr
T/C (dose: 100.0 mg/kg/injection, schedule: Q01DX005 (ip), vehicle: Klucel (hydroxypropylcellulose) (HPC)): 98 % of control
T/C (dose: 100.0 mg/kg/injection, schedule: Q04DX002 (ip), vehicle: Klucel (hydroxypropylcellulose) (HPC)): 104 % of control
T/C (dose: 200.0 mg/kg/injection, schedule: Q01DX005 (ip), vehicle: Klucel (hydroxypropylcellulose) (HPC)): 94 % of control
T/C (dose: 200.0 mg/kg/injection, schedule: Q04DX002 (ip), vehicle: Klucel (hydroxypropylcellulose) (HPC)): 101 % of control
T/C (dose: 400.0 mg/kg/injection, schedule: Q01DX005 (ip), vehicle: Klucel (hydroxypropylcellulose) (HPC)): 102 % of control
T/C (dose: 400.0 mg/kg/injection, schedule: Q04DX002 (ip), vehicle: Klucel (hydroxypropylcellulose) (HPC)): 101 % of control

O=S=Nc1c(Cl)cc(Cl)cc1Cl
T/C [11]: 101 % of control
T/C [12]: 104 % of control
T/C [13]: 108 % of control

c1ccc(N2CNN(c3ccccc3)CN2)cc1
T/C [14]: 86 % of control
T/C [15]: 90 % of control
T/C [16]: 95 % of control

COC(=O)CCC(NC(=O)C1CSC(C)(C)N1C=O)C(=O)OC (stereo not given)
T/C [6]: 104 % of control
T/C [8]: 101 % of control
T/C [10]: 101 % of control

COC(=O)c1cc(C)cc(NS(=O)(=O)c2ccc(C)cc2)c1C
T/C [17]: 89 % of control
T/C [14]: 86 % of control
T/C [15]: 94 % of control
T/C [16]: 89 % of control

NC(=S)c1nn(C2OC(CO)C(O)C2O)c2ncnc(N)c12 (stereo not given)
T/C (dose: 0.78 mg/kg/injection, schedule: Q01DX009 (ip), vehicle: saline): 122 % of control
T/C (dose: 3.12 mg/kg/injection, schedule: Q01DX009 (ip), vehicle: saline): 173 % of control
T/C (dose: 6.25 mg/kg/injection, schedule: Q01DX009 (ip), vehicle: saline): 89 % of control

CN1CCC(OC(=O)N(c2ccccc2)c2ccccc2)CC1
T/C (dose: 100.0 mg/kg/injection, schedule: Q01DX001 (ip), vehicle: saline with Tween-80): 99 % of control
T/C (dose: 200.0 mg/kg/injection, schedule: Q01DX001 (ip), vehicle: saline with Tween-80): 105 % of control

Nc1cncc(Br)c1NCCc1ccccc1
T/C [14]: 103 % of control
T/C [15]: 97 % of control
T/C [16]: 101 % of control

O=C(O)c1ccccc1C(=O)c1ccccc1C(=O)O
T/C [18]: 102 % of control
T/C [19]: 98 % of control
T/C (dose: 400.0 mg/kg/injection, schedule: Q04DX003 (ip), vehicle: saline with Tween-80): 102 % of control

CCCCCCCCCCCCCCCCOc1cccc(OCc2ccccc2)c1
T/C (dose: 100.0 mg/kg/injection, schedule: Q04DX003 (ip), vehicle: DMSO): 88 % of control
T/C (dose: 200.0 mg/kg/injection, schedule: Q04DX003 (ip), vehicle: DMSO): 98 % of control
T/C (dose: 400.0 mg/kg/injection, schedule: Q04DX003 (ip), vehicle: DMSO): 93 % of control

Cc1cc(=O)n(-c2ccccc2)n1C
T/C [6]: 104 % of control
T/C [8]: 106 % of control
T/C [10]: 106 % of control

CN(C)C(=O)NCc1cccs1
T/C (dose: 100.0 mg/kg/injection, schedule: Q04DX003 (ip), vehicle: carboxymethylcellulose (CMC)): 97 % of control
T/C (dose: 200.0 mg/kg/injection, schedule: Q04DX003 (ip), vehicle: carboxymethylcellulose (CMC)): 93 % of control
T/C (dose: 400.0 mg/kg/injection, schedule: Q04DX003 (ip), vehicle: carboxymethylcellulose (CMC)): 104 % of control

CC(C)(CCC#N)C1OCCO1
T/C [5]: 106 % of control
T/C [6]: 98 % of control
T/C [7]: 102 % of control
T/C [8]: 105 % of control
T/C [9]: 102 % of control
T/C [10]: 96 % of control

CCOC(=O)c1ccc(NC(=O)Oc2ccc(C=O)cc2OC)cc1
T/C [11]: 93 % of control
T/C [12]: 101 % of control
T/C [13]: 95 % of control

S=c1[nH]n2c(=S)[nH]nc2s1
T/C [4]: 101 % of control
T/C [20]: 103 % of control
T/C [21]: 93 % of control

Nc1cccc2c1C(=O)c1cccc(N)c1C2=O
T/C [4]: 101 % of control
T/C [20]: 96 % of control
T/C [21]: 96 % of control

O=C(O)CCCOc1cc(Cl)c(Cl)cc1Cl
T/C [17]: 88 % of control
T/C (dose: 50.0 mg/kg/injection, schedule: Q01DX009 (ip), vehicle: gum acacia): 98 % of control
T/C (dose: 50.0 mg/kg/injection, schedule: Q04DX003 (ip), vehicle: gum acacia): 96 % of control
T/C [14]: 88 % of control
T/C (dose: 100.0 mg/kg/injection, schedule: Q01DX009 (ip), vehicle: gum acacia): 100 % of control
T/C (dose: 100.0 mg/kg/injection, schedule: Q04DX003 (ip), vehicle: gum acacia): 96 % of control
T/C (dose: 200.0 mg/kg/injection, schedule: Q01DX009 (ip), vehicle: gum acacia): 93 % of control
T/C (dose: 200.0 mg/kg/injection, schedule: Q04DX003 (ip), vehicle: gum acacia): 104 % of control

O=c1c2cc([N+](=O)[O-])cc3c2-c2c4c(cc([N+](=O)[O-])cc14)c(O)c1cc([N+](=O)[O-])cc(c3=O)c21
T/C (dose: 100.0 mg/kg/injection, schedule: Q04DX003 (ip), vehicle: acetone): 123 % of control
T/C (dose: 200.0 mg/kg/injection, schedule: Q04DX003 (ip), vehicle: acetone): 120 % of control
T/C (dose: 266.0 mg/kg/injection, schedule: Q04DX003 (ip), vehicle: saline): 111 % of control
T/C [10]: 116 % of control

CCCCOC(OCCCC)C(C)=O
T/C [11]: 96 % of control
T/C [4]: 113 % of control
T/C [12]: 96 % of control
T/C [20]: 92 % of control
T/C [13]: 101 % of control
T/C [21]: 102 % of control

CCOC(=O)C(CCSC(C)=O)SC(C)=O (stereo not given)
T/C [1]: 94 % of control
T/C [2]: 96 % of control
T/C [3]: 89 % of control
T/C [18]: 95 % of control
T/C [19]: 92 % of control

COC(=O)C1=C(C(=O)OC)C2(C)C=CC1O2 (stereo not given)
T/C (dose: 3.12 mg/kg/injection, schedule: Q01DX009 (ip), vehicle: saline with Tween-80): 98 % of control
T/C (dose: 6.25 mg/kg/injection, schedule: Q01DX009 (ip), vehicle: saline with Tween-80): 93 % of control
T/C (dose: 12.5 mg/kg/injection, schedule: Q01DX009 (ip), vehicle: saline with Tween-80): 98 % of control and 105 % of control
T/C [1]: 106 % of control
